Experimental data taken from patent publication US10836735B2, “Compositions and methods for treating cancers” (CEDARS-SINAI MEDICAL CENTER, priority 2014, dated 2020).

Key:
[1] = tested on: MIA PaCa-2 pancreatic cancer cells; assay: EMT markers (vimentin, Twist, Snail) in pancreatic cancer cells; type: cell-based; settings: FIG. 4
Description: FIG. 4 depicts, in accordance with various embodiments of the invention, effect of HDAC, GSK3β inhibitions combined with gemcitabine on EMT in MIA PaCa-2 pancreatic cancer cells.
Inhibition of GSK3β induces up-regulation of EMT as shown by a measure of vimentin which is an accepted measurement for EMT (FIG. 4). This effect of GSK3β was prevented by the HDAC inhibitor Saha (FIG. 4). […] A combination of the two inhibitors with gemcitabine, a chemotherapeutic agent used in pancreatic cancer led to a complete inhibition of the EMT marker vimentin and its transcription factors (FIG. 4).

pdx1-Cre-LSL-Kras mice = assay: Mouse model of pancreatic cancer (pdx1-Cre-LSL-Kras) exposed to cigarette smoke: PanIN lesions and fibrosis; type: in vivo; settings: Saha 50 mg/Kg 5 times per week, TDZD-8 4 mg/Kg 3 times per week, 6 weeks; compared to control group
Protocol: FIG. 2 depicts, in accordance with various embodiments of the invention, effect of HDAC inhibitor Saha (50 mg/Kg) and GSK3β inhibitor (4 mg/Kg) alone and in combination on reducing PanIN lesion formation.
FIG. 3 depicts, in accordance with various embodiments of the invention, effect of HDAC inhibitor Saha (50 mg/Kg) and GSK3β inhibitor (4 mg/Kg) alone and in combination on fibrosis.
The inventors used a mouse model of pancreatic cancer where an oncogene call mutant K-ras is expressed in the pancreas (pdx1-Cre-LSL-Kras). These mice were exposed to cigarette smoke for 6 weeks in smoking chambers. Groups of mice were injected with GSK3β inhibitor TDZD-8 (4 mg/Kg, 3 times per week) and/or HDAC inhibitor Saha (50 mg/Kg; 5 times per week) for 6 weeks.
The same effect was observed when measuring fibrosis with collagen staining. Fibrosis is a measure of cancer activity.

[2] = tested on: MIA PaCa-2 pancreatic cancer cells; assay: Cell survival with GSK3β inhibitor, HDAC inhibitor and combination; type: cell-based; settings: FIGS. 5-7
Description: FIG. 7 depicts, in accordance with various embodiments of the invention, effect of combination of GSK3β inhibitor tideglusib and HDAC inhibitor Saha on cell survival in pancreatic cancer cells MIA PaCa-2.

[3] = tested on: MIA PaCa-2 pancreatic cancer cell line; assay: Western: EMT and cancer stemness markers; type: cell-based; settings: MIA PaCa-2, 72
Protocol: (§1) Cells were cultured in the presence or absence of different doses of ALB-185357 for 72 and protein levels measured by Western (FIG. 22A) and cell invasion measured in Matrigel Invasion Chambers (FIG. 22B).

KPC mice = assay: Survival of KPC mice with pancreatic adenocarcinoma; type: in vivo; settings: 5 mg/Kg ip 3 times per week from age 8 weeks until death
Protocol: KPC mice, which have Kras and p53 mutations and spontaneously develop pancreatic adenocarcinoma, were ip injected 3 times per week with 5 mg/Kg of ALB185357 from age 8 weeks until death.

[4] = tested on: MIA PaCa-2 pancreatic cancer cell line; assay: Cell invasion in Matrigel Invasion Chambers; type: cell-based; settings: MIA PaCa-2, Matrigel Invasion Chambers
Protocol: as §1

[5] = tested on: MIA PaCa-2 pancreatic cancer cell line; assay: Western: histone acetylation and GSK-3β phosphorylation/inhibition; type: cell-based; settings: MIA PaCa-2, 72
Protocol: Cells were cultured in the presence or absence of different doses of ALB-185357 for 72 and protein levels measured by Western.

[6] = tested on: normal pancreatic ductal cells; assay: Cell survival of normal cells by MTT assay; type: cell-based; settings: 72
Protocol: Cells were cultured in the presence or absence of different doses of ALB-185357 for 72 and cell survival measured by MTT assay.

[7] = tested on: hepatocellular carcinoma HepG2 cells; assay: Cell survival by MTT assay; type: cell-based; settings: HepG2, 72
Protocol: (§2) Cells were cultured in the presence or absence of different doses of ALB-185357 for 72 and cell survival measured by MTT assay (FIGS. 17 and 18) or by counting cell number (FIG. 19).

[8] = tested on: BT474 breast cancer cells; assay: Cell survival by MTT assay; type: cell-based; settings: BT474, 72
Protocol: as §2

[9] = tested on: MIA PaCa-2 pancreatic cancer cell line; assay: Apoptosis by DNA fragmentation; type: cell-based; settings: MIA PaCa-2, 72
Protocol: Dashed lane represents the expected additive effect (Significance between expected additive effect and observed effect is achieved at 2.4 uM).
MIA PaCa-2 cells were cultured in the presence or absence of different doses of ALB-185357 for 72 and apoptosis assessed by measuring DNA fragmentation.
MIA PaCa-2 cells were cultured in the presence or absence of different doses of ALB-185357 or gemcitabine at the low dose of 1 ng/ml for 72 and apoptosis assessed by measuring DNA fragmentation.

Raji lymphoma cells = assay: Cell survival by counting cell number; type: cell-based; settings: 72
Protocol: as §2

[10] = tested on: BxPC-3 pancreatic cancer cell line; assay: Cell survival by MTT assay; type: cell-based
Protocol: Thus, the effect of ALB-185357 (a dual inhibitor of HDAC and GSK3β) represents an additional synergism to that observed with the combination of individual agents.
BxPC-3 pancreatic cancer cells were cultured in the presence or absence of different doses of ALB-188540 or ALB-185643 for 72 and cell survival measured by MTT assay.

| SMILES | EMT marker vimentin [1] | transcription factors regulating EMT (Twist and Snail) [1] | formation of pancreatic intraepithelial neoplasia (PanIN) lesions (pdx1-Cre-LSL-Kras mice) | cell survival [2] | expression of EMT markers N-cadherin and twist (Western) [3] | expression of cancer stemness marker Sox2 (Western) [3] | increase of mice survival (KPC mice) | survival of animals with advance pancreatic cancer (KPC mice) | cell invasion [4] | GSK-3β phosphorylation/inhibition (Western) [5] | histone acetylation (Western) [5] | cell survival of normal cells (MTT) [6] | cell survival (MTT) [7] | cell survival (MTT) [8] | apoptosis (DNA fragmentation level) [9] | dose at which significance of apoptosis increase was achieved [9] [nM] | cell survival (cell numbers) (Raji lymphoma cells) | concentration at which significance of the effect on cell survival was achieved ([10]; BxPC-3, 72 h, MTT) [nM] | effect on cell survival compared with combination of saha and tideglusib ([10]; BxPC-3, 72 h, same concentration) | cell survival (MTT) ([10]; BxPC-3, cultured 72 h) |
| --- | --- | --- | --- | --- | --- | --- | --- | --- | --- | --- | --- | --- | --- | --- | --- | --- | --- | --- | --- | --- |
| O=C(CCCCCCC(=O)Nc1ccccc1)NO [Saha, subcroylanilide hydroxamic acid] | prevented | inhibited | significantly decreased formation | dose-dependent effect | – | – | – | – | – | – | – | – | – | – | – | – | – | – | – | – |
| O=c1sn(-c2cccc3ccccc23)c(=O)n1Cc1ccccc1 [tideglusib, 4-Benzyl-2-(naphthalen-1-yl)-1,2,4-thiadiazolidine-3,5-dione] | – | – | – | dose-dependent effect | – | – | – | – | – | – | – | – | – | – | – | – | – | – | – | – |
| COc1ccc(Nc2nnc(-c3ccc(C(=O)NO)cc3)o2)cc1 [ALB-185357] | – | – | – | – | decreases expression | decreases expression | at least 50% | improves survival | decreases the invasion | dose-dependently up-regulates | dose-dependently up-regulates | does not affect cell survival | dose-dependently decreases cell survival | dose-dependently decreases cell survival | dose-dependently increases apoptosis | 300 | dose-dependently decreases cell survival | 300 | greater than the combination | dose-dependently decreased cell survival |
